Source: ChEMBL document CHEMBL4680157, “Design, synthesis and biological evaluation of novel TRβ selective agonists sustained by ADME-toxicity analysis” (Eur J Med Chem, 2020)

Legend:
[1] = Cytotoxicity against human MCF7 cells assessed as cell growth inhibition at 10 uM after 48 hrs relative to control; type: cell-based
[2] = molecular target: 3',5'-cyclic-AMP phosphodiesterase 4C (Homo sapiens) (UniProt Q08493); assay: Inhibition of PDE4C1 (unknown origin) at 10 uM relative to control
CYP2D6 = CYP2D6 (Homo sapiens, UniProt P10635); assay: Inhibition of CYP2D6 (unknown origin) at 10 uM relative to control; type: ADME
CYP1A2 = molecular target: T1, CYP1A2 (Homo sapiens, UniProt P05177); assay: Inhibition of CYP1A2 (unknown origin) at 10 uM relative to control; type: ADME
T1 sequence (P05177 whole entry): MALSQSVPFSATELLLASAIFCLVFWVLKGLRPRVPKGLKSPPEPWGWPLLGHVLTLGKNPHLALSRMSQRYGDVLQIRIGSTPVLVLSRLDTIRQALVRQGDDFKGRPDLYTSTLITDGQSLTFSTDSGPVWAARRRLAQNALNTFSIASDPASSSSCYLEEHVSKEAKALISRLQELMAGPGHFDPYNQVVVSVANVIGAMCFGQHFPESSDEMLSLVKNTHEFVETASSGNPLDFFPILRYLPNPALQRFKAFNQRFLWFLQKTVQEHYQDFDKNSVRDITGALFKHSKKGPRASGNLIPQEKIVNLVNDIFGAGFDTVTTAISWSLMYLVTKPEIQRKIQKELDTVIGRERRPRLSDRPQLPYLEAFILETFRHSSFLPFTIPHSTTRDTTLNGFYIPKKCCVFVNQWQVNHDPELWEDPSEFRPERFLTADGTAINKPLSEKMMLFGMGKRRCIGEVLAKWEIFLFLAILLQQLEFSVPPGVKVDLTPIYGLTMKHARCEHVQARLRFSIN

[3] = Cytotoxicity against human U2OS cells assessed as cell growth inhibition at 10 uM after 48 hrs relative to control; type: cell-based
HDAC9 = HDAC9 (Homo sapiens, UniProt Q9UKV0); assay: Inhibition of HDAC9 (unknown origin) at 10 uM relative to control
[4] = Cytotoxicity against human U2OS cells assessed as cell growth inhibition at 10 uM after 24 hrs relative to control; type: cell-based
hERG (KCNH2) = hERG (KCNH2) (Homo sapiens, UniProt Q12809); assay: Inhibition of human ERG at 10 uM by fluorescence polarization assay relative to control
[5] = Cytotoxicity against human hTERT cells assessed as cell growth inhibition at 10 uM after 24 hrs relative to control; type: cell-based, hTERT-BJ
[6] = Cytotoxicity against human HEK293 cells assessed as cell growth inhibition at 10 uM after 24 hrs relative to control; type: cell-based
CYP3A4 = CYP3A4 (Homo sapiens, UniProt P08684); assay: Inhibition of CYP3A4 (unknown origin) at 10 uM relative to control; type: ADME
[7] = Cytotoxicity against human HEK293 cells assessed as cell growth inhibition at 10 uM after 48 hrs relative to control; type: cell-based
CYP2C9 = CYP2C9 (Homo sapiens, UniProt P11712); assay: Inhibition of CYP2C9 (unknown origin) at 10 uM relative to control; type: ADME
CYP2C19 = CYP2C19 (Homo sapiens, UniProt P33261); assay: Inhibition of CYP2C19 (unknown origin) at 10 uM relative to control; type: ADME
[8] = Cytotoxicity against human hTERT cells assessed as cell growth inhibition at 10 uM after 48 hrs relative to control; type: cell-based, hTERT-BJ
[9] = Cytotoxicity against human MCF7 cells assessed as cell growth inhibition at 10 uM after 24 hrs relative to control; type: cell-based
HDAC8 = molecular target: T2, HDAC8 (Homo sapiens, UniProt Q9BY41); assay: Inhibition of HDAC8 (unknown origin) at 10 uM relative to control
T2 sequence (Q9BY41 whole entry): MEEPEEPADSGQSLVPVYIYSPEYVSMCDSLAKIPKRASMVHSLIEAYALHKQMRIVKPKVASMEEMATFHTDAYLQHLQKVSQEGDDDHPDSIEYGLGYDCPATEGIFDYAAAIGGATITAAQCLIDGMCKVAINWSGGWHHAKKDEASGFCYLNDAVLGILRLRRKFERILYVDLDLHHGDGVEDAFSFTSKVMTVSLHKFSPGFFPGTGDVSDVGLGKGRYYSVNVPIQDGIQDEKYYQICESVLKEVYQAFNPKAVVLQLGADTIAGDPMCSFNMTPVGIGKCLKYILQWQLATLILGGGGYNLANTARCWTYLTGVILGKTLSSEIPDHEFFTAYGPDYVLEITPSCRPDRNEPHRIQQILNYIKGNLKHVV

SIRT7 = molecular target: T3, SIRT7 (Homo sapiens, UniProt Q9NRC8); assay: Inhibition of SIRT7 (unknown origin) at 10 uM relative to control
T3 sequence (Q9NRC8 whole entry): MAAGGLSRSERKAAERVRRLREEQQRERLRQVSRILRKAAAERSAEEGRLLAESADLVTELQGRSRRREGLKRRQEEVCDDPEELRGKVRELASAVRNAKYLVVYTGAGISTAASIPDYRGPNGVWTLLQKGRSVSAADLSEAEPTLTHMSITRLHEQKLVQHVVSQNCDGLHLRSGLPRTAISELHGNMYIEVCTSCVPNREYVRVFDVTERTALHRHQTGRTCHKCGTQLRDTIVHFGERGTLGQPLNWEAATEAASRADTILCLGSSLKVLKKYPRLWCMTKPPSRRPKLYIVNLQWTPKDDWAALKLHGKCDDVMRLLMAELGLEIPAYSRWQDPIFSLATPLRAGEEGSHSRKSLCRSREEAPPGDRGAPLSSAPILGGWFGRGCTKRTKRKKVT

Sequence of CYP2D6 (P10635 whole entry): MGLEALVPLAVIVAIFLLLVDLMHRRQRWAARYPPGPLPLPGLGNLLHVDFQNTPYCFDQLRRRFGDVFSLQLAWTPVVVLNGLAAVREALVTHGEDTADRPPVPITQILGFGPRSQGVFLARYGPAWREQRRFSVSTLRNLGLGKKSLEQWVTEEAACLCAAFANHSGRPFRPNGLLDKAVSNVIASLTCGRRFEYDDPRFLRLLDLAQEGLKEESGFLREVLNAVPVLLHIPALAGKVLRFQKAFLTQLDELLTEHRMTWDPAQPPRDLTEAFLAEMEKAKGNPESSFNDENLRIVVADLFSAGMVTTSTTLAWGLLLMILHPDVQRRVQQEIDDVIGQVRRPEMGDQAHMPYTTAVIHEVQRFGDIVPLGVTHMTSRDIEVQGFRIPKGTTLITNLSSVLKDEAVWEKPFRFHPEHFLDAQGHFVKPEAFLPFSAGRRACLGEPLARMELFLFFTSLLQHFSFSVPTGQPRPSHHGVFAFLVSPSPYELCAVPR
Sequence of 3',5'-cyclic-AMP phosphodiesterase 4C (Homo sapiens) (Q08493 whole entry): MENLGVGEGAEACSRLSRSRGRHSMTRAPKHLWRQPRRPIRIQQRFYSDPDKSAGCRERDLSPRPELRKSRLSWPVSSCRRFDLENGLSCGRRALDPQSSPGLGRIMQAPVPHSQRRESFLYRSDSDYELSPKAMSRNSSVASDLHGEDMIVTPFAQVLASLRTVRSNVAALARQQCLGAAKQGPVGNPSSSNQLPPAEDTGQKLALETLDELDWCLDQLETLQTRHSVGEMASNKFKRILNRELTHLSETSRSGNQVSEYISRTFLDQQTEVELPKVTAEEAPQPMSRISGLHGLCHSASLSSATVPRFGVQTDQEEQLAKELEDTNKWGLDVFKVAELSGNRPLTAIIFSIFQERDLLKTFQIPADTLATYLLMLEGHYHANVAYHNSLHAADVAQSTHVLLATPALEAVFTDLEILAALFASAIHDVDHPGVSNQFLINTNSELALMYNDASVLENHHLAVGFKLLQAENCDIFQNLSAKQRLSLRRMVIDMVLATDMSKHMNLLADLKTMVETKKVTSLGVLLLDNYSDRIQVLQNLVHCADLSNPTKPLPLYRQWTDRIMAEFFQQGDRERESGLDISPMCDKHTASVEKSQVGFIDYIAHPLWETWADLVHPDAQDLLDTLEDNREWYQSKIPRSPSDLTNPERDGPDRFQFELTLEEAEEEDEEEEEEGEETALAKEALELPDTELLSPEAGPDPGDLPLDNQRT
Sequence of hERG (KCNH2) (Q12809 whole entry): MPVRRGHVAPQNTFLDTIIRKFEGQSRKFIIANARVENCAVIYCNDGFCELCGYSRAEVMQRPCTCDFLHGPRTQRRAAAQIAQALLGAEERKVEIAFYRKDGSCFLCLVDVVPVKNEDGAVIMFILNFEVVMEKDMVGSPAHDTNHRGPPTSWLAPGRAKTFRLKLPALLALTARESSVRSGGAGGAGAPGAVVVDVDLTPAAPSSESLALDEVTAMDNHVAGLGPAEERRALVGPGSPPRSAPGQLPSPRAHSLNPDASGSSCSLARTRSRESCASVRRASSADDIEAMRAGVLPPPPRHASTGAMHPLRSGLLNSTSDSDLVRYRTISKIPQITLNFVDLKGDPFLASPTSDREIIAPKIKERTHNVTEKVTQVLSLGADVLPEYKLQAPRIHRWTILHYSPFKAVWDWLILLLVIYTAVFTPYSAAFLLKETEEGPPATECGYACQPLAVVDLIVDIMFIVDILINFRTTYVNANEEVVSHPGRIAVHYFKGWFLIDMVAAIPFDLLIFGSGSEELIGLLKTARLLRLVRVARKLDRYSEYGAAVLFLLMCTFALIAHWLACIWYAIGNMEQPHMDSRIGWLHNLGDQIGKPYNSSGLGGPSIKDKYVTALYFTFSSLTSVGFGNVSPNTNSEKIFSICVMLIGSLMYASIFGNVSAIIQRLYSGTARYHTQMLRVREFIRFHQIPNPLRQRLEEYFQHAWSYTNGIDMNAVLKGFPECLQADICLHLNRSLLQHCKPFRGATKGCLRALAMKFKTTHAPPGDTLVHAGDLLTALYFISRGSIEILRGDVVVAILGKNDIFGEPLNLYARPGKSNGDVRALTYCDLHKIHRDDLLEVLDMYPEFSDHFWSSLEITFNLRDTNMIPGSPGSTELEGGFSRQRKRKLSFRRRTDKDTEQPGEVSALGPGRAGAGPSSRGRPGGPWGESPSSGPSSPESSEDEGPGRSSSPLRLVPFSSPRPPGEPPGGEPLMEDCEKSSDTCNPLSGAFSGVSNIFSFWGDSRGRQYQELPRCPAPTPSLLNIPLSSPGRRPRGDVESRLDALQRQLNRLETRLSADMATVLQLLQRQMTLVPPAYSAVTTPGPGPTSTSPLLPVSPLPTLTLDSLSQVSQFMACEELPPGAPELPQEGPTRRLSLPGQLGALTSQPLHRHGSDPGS
Sequence of CYP2C19 (P33261 whole entry): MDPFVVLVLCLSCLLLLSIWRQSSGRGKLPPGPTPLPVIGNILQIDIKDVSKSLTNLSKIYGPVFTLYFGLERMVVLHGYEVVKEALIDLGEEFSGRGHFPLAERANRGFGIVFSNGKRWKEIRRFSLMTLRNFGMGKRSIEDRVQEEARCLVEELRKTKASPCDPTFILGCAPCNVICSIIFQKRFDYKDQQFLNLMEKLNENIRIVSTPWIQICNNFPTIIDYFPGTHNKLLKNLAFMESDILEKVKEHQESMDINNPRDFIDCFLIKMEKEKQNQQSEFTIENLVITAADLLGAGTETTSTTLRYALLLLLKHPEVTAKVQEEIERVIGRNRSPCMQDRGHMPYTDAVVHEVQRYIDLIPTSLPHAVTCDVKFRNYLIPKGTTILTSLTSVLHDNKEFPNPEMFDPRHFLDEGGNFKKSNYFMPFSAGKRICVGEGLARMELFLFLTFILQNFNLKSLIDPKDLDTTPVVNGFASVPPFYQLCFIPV
Sequence of HDAC9 (Q9UKV0 whole entry): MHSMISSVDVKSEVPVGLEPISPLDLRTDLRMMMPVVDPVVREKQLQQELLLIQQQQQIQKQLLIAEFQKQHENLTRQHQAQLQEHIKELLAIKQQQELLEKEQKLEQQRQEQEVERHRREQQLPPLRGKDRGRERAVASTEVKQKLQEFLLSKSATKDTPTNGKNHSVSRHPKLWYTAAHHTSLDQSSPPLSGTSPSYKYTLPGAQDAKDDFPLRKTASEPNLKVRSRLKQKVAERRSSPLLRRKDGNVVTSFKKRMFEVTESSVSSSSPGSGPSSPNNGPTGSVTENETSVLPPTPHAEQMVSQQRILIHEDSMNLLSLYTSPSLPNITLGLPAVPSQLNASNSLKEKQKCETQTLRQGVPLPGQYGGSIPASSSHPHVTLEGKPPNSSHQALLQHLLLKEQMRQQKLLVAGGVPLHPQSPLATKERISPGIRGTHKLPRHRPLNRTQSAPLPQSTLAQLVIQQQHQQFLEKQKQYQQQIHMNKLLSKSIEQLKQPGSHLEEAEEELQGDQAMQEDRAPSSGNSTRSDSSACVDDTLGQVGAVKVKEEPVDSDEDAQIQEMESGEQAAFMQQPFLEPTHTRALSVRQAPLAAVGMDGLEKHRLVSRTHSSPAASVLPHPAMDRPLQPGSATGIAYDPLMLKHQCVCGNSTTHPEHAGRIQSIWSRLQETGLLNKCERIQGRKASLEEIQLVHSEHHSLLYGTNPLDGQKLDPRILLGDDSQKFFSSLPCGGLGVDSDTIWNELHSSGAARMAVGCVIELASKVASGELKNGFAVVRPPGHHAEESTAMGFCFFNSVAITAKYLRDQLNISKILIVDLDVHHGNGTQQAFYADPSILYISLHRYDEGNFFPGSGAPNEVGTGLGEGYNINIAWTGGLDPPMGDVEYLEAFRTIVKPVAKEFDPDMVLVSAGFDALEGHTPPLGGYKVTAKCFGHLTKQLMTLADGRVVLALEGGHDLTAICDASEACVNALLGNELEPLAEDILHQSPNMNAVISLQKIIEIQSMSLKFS
Sequence of CYP3A4 (P08684 whole entry): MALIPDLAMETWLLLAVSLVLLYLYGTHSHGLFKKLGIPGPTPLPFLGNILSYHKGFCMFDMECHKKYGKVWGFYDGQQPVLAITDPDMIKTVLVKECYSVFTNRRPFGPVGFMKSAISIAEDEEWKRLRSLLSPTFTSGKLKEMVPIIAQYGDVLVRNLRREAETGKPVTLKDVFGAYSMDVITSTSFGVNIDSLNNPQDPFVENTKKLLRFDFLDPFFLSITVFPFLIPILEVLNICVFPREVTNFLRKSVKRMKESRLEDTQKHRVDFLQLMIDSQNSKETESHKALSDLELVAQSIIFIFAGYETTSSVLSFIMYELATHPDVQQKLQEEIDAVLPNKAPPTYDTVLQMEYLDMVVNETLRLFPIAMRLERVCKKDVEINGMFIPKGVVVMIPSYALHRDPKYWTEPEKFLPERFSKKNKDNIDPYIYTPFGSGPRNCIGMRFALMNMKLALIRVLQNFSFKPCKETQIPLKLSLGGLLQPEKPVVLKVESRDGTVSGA
Sequence of CYP2C9 (P11712 whole entry): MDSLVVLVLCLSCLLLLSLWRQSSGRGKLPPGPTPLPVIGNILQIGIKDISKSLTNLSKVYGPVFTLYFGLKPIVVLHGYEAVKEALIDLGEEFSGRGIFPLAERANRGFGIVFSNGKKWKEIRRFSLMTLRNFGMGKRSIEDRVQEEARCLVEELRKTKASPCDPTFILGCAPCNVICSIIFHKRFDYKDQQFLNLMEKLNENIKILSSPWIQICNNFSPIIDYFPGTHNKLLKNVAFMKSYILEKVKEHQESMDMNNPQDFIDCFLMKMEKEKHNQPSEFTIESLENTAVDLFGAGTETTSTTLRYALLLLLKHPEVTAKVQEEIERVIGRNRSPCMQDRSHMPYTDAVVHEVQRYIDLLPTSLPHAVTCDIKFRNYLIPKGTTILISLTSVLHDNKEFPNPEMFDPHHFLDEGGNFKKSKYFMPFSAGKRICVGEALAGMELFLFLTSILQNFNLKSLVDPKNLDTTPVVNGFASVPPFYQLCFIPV

| inhibition [2] | inhibition at 10 µM (CYP2D6) | inhibition at 10 µM (CYP1A2) | inhibition at 10 µM (HDAC9) | inhibition at 10 µM (CYP3A4) | inhibition at 10 µM (CYP2C9) | inhibition at 10 µM (CYP2C19) | inhibition at 10 µM (HDAC8) | inhibition at 10 µM (SIRT7) | Structure (SMILES) | inhibition at 48 h, 10 µM [1] | inhibition at 48 h, 10 µM [3] | inhibition at 24 h, 10 µM [4] | inhibition at 10 µM (hERG (KCNH2)) | inhibition at 24 h, 10 µM [5] | inhibition at 24 h, 10 µM [6] | inhibition at 48 h, 10 µM [7] | inhibition at 48 h, 10 µM [8] | inhibition at 24 h, 10 µM [9] |
| --- | --- | --- | --- | --- | --- | --- | --- | --- | --- | --- | --- | --- | --- | --- | --- | --- | --- | --- |
| < 50% | < 50% | < 50% | < 50% | < 50% | < 50% | < 50% | < 50% | < 50% | CC(=O)Nc1ccc(Cc2c(C)cc(OCC(=O)O)cc2C)cc1C(C)C | < 50% | < 50% | < 50% | < 25% | < 50% | < 50% | < 50% | < 50% | < 50% |
| < 50% | < 50% | < 50% | < 50% | 51% | < 50% | < 50% | < 50% | < 50% | Cc1cc(OCC(=O)O)cc(C)c1Cc1ccc(N)c(C(C)C)c1 | < 50% | < 50% | < 50% | < 40% | < 50% | < 50% | < 50% | < 50% | < 50% |
| < 50% | < 50% | < 50% | < 50% | < 50% | < 50% | < 50% | < 50% | < 50% | Cc1cc(OCC(=O)O)cc(C)c1Cc1ccc(O)cc1 | < 50% | < 50% | < 50% | < 25% | < 50% | < 50% | < 50% | < 50% | < 50% |
